Source: PubChem BioAssay AID248 (DTP/NCI, 2004)
Several values for one entry are separate records, joined by “and”; a condition that tells them apart may be missing. Equal values may be shown once. Toxic doses and inconclusive results are not listed. Rule as the data show it: active = T/C of 150% or more; inactive = T/C below 125%.

Tested on: L1210 leukemia ip in BDF1 mice, survival T/C
Assay: NCI In Vivo Anticancer Drug Screen. Data for tumor model L1210 Leukemia (intraperitoneal) in B6D2F1 (BDF1) mice
Settings: endpoint: mean survival time, higher = longer survival
Procedure, shortened: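 Survival endpoint. Drug-treated group vs vehicle group, expressed as T divided by C. Tumor passaged by transplantation.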

[1] = dose: 25.0 mg/kg/injection, schedule: Q04DX002 (ip), vehicle: saline with Tween-80
[2] = dose: 50.0 mg/kg/injection, schedule: Q04DX002 (ip), vehicle: saline with Tween-80
[3] = dose: 100.0 mg/kg/injection, schedule: Q04DX002 (ip), vehicle: saline with Tween-80
[4] = dose: 100.0 mg/kg/injection, schedule: Q01DX009 (ip), vehicle: Klucel (hydroxypropylcellulose) (HPC)
[5] = dose: 200.0 mg/kg/injection, schedule: Q01DX009 (ip), vehicle: Klucel (hydroxypropylcellulose) (HPC)
[6] = dose: 400.0 mg/kg/injection, schedule: Q01DX009 (ip), vehicle: Klucel (hydroxypropylcellulose) (HPC)
[7] = dose: 25.0 mg/kg/injection, schedule: Q01DX009 (ip), vehicle: Klucel (hydroxypropylcellulose) (HPC)
[8] = dose: 50.0 mg/kg/injection, schedule: Q01DX009 (ip), vehicle: Klucel (hydroxypropylcellulose) (HPC)
[9] = dose: 100.0 mg/kg/injection, schedule: Q01DX001 (ip), vehicle: acetone
[10] = dose: 100.0 mg/kg/injection, schedule: Q01DX009 (ip), vehicle: acetone
[11] = dose: 200.0 mg/kg/injection, schedule: Q01DX001 (ip), vehicle: acetone
[12] = dose: 200.0 mg/kg/injection, schedule: Q01DX001 (ip), vehicle: saline
[13] = dose: 200.0 mg/kg/injection, schedule: Q01DX009 (ip), vehicle: acetone
[14] = dose: 400.0 mg/kg/injection, schedule: Q01DX001 (ip), vehicle: acetone
[15] = dose: 100.0 mg/kg/injection, schedule: Q04DX003 (ip), vehicle: saline with Tween-80
[16] = dose: 200.0 mg/kg/injection, schedule: Q04DX003 (ip), vehicle: saline with Tween-80
[17] = dose: 100.0 mg/kg/injection, schedule: Q01DX001 (ip), vehicle: saline
[18] = dose: 400.0 mg/kg/injection, schedule: Q01DX001 (ip), vehicle: saline

Measured: T/C

O=P1(CCc2ccc(Cl)cc2)CC(Br)C(Br)C1 (configuration not stated)
inactive: dose: 100.0 mg/kg/injection, schedule: Q04DX003 (ip), vehicle: other 93 % of control | dose: 200.0 mg/kg/injection, schedule: Q04DX003 (ip), vehicle: other 95 % of control | dose: 400.0 mg/kg/injection, schedule: Q04DX003 (ip), vehicle: other 98 % of control

CCCCSP(=O)(N1CCCCC1)N1CCCCC1
inactive: [1] 97 % of control | [2] 97 % of control | [3] 92 % of control and 94 % of control

CCN(CC)C(=O)SCCSC(=O)N(CC)CC
inactive: dose: 25.0 mg/kg/injection, schedule: Q01DX009 (ip), vehicle: saline with Tween-80 110 % of control | dose: 50.0 mg/kg/injection, schedule: Q01DX009 (ip), vehicle: saline with Tween-80 110 % of control | dose: 100.0 mg/kg/injection, schedule: Q01DX009 (ip), vehicle: saline with Tween-80 93 % of control

IC#Cc1ccccc1
inactive: dose: 100.0 mg/kg/injection, schedule: Q01DX001 (ip), vehicle: saline with Tween-80 112 % of control | dose: 200.0 mg/kg/injection, schedule: Q01DX001 (ip), vehicle: saline with Tween-80 105 % of control | dose: 400.0 mg/kg/injection, schedule: Q01DX001 (ip), vehicle: saline with Tween-80 105 % of control

COc1ccc(NC(=O)N2CCN(c3ccccc3)CC2)c(OC)c1
inactive: [4] 102 % of control | [5] 96 % of control | [6] 96 % of control

Cc1[nH]c(=O)[nH]c(=O)c1Br
inactive: dose: 37.0 mg/kg/injection, schedule: Q01DX Z (ip), vehicle: methylcellulose (MC) 91 % of control | dose: 75.0 mg/kg/injection, schedule: Q01DX Z (ip), vehicle: methylcellulose (MC) 96 % of control | dose: 150.0 mg/kg/injection, schedule: Q01DX Z (ip), vehicle: methylcellulose (MC) 86 % of control

Nc1cccc2c1C(=O)c1cccc(NC(=O)c3ccccc3)c1C2=O
inactive: dose: 6.25 mg/kg/injection, schedule: Q01DX009 (ip), vehicle: Klucel (hydroxypropylcellulose) (HPC) 89 % of control | dose: 12.5 mg/kg/injection, schedule: Q01DX009 (ip), vehicle: Klucel (hydroxypropylcellulose) (HPC) 92 % of control | [7] 89 % of control | [8] 108 % of control | [4] 95 % of control | dose: 100.0 mg/kg/injection, schedule: Q04DX003 (ip), vehicle: Klucel (hydroxypropylcellulose) (HPC) 96 % of control | [5] 95 % of control | dose: 200.0 mg/kg/injection, schedule: Q04DX003 (ip), vehicle: Klucel (hydroxypropylcellulose) (HPC) 91 % of control | [6] 99 % of control | dose: 400.0 mg/kg/injection, schedule: Q04DX003 (ip), vehicle: Klucel (hydroxypropylcellulose) (HPC) 90 % of control

Clc1ccc(C(c2ccc(Cl)cc2)C(Cl)(Cl)Cl)cc1
inactive: dose: 12.0 mg/kg/injection, schedule: Q01DX009 (ip), vehicle: saline 95 % of control | dose: 12.5 mg/kg/injection, schedule: Q01DX009 (ip), vehicle: acetone 97 % of control | [7] 90 % of control | dose: 25.0 mg/kg/injection, schedule: Q01DX009 (ip), vehicle: acetone 93 % of control | dose: 25.0 mg/kg/injection, schedule: Q01DX009 (ip), vehicle: saline 92 % of control | [8] 92 % of control | dose: 50.0 mg/kg/injection, schedule: Q01DX009 (ip), vehicle: acetone 100 % of control and 86 % of control | [9] 93 % of control | [10] 94 % of control | [11] 87 % of control | [12] 90 % of control | [13] 97 % of control | [14] 92 % of control | dose: 800.0 mg/kg/injection, schedule: Q01DX001 (ip), vehicle: acetone 88 % of control | dose: 800.0 mg/kg/injection, schedule: Q01DX001 (ip), vehicle: saline 87 % of control

O=c1[nH]c(-c2ccccc2)nc2c1OCN(Cc1ccccc1)C2
inactive: dose: 50.0 mg/kg/injection, schedule: Q01DX001 (ip), vehicle: carboxymethylcellulose (CMC) 98 % of control | dose: 100.0 mg/kg/injection, schedule: Q01DX001 (ip), vehicle: carboxymethylcellulose (CMC) 101 % of control | dose: 200.0 mg/kg/injection, schedule: Q01DX001 (ip), vehicle: carboxymethylcellulose (CMC) 98 % of control | dose: 400.0 mg/kg/injection, schedule: Q01DX001 (ip), vehicle: carboxymethylcellulose (CMC) 93 % of control

CC(CCN=Cc1ccccc1O)N=Cc1ccccc1O (configuration not stated)
inactive: dose: 50.0 mg/kg/injection, schedule: Q01DX001 (ip), vehicle: other 107 % of control | dose: 100.0 mg/kg/injection, schedule: Q01DX001 (ip), vehicle: other 89 % of control | dose: 200.0 mg/kg/injection, schedule: Q01DX001 (ip), vehicle: other 97 % of control | dose: 400.0 mg/kg/injection, schedule: Q01DX001 (ip), vehicle: other 95 % of control

[O]=[Sb]([OH])([OH])[c]1ccccc1
inactive: dose: 12.5 mg/kg/injection, schedule: Q04DX002 (ip), vehicle: saline with Tween-80 100 % of control | [1] 100 % of control | dose: 50.0 mg/kg/injection, schedule: Q01DX009 (sc), vehicle: olive oil, sesame oil, peanut oil 97 % of control | [2] 103 % of control | dose: 100.0 mg/kg/injection, schedule: Q01DX009 (sc), vehicle: olive oil, sesame oil, peanut oil 95 % of control | [3] 90 % of control | dose: 100.0 mg/kg/injection, schedule: Q04DX003 (sc), vehicle: olive oil, sesame oil, peanut oil 97 % of control | dose: 200.0 mg/kg/injection, schedule: Q04DX003 (sc), vehicle: olive oil, sesame oil, peanut oil 93 % of control

OCc1ccc[n+](CCc2c[nH]c3ccccc23)c1
inactive: [15] 97 % of control | [16] 103 % of control

O=C(OCCOCCOCCOCCOCCOCCOCCOCCOCCOCCOCCOCCOCCOCCOCCOCCOCCOCCOCCOCCOCCOCCOC(=O)N1CC1)N1CC1
inactive: [9] 94 % of control | [10] 98 % of control | dose: 100.0 mg/kg/injection, schedule: Q04DX003 (ip), vehicle: saline 100 % of control | [11] 94 % of control | [13] 95 % of control | dose: 200.0 mg/kg/injection, schedule: Q04DX003 (ip), vehicle: saline 103 % of control | [14] 97 % of control | dose: 400.0 mg/kg/injection, schedule: Q04DX003 (ip), vehicle: saline 108 % of control

Cc1cccc(/C=C2/SC(=S)N(c3ccccc3)C2=O)c1
inactive: [17] 100 % of control | [12] 98 % of control | [18] 105 % of control

O=S(=O)(O)SCCCNCCCCCCCCNCCCSS(=O)(=O)O
inactive: [15] 101 % of control | [16] 92 % of control | dose: 400.0 mg/kg/injection, schedule: Q04DX003 (ip), vehicle: saline with Tween-80 88 % of control

COc1cc2c(cc1OC)C(Cc1cc(OC)c(OC)cc1[N+](=O)[O-])=NCC2
inactive: [17] 100 % of control | [12] 98 % of control | [18] 94 % of control

N=C(N)SCCCCCSC(=N)N
inactive: [17] 124 % of control | dose: 100.0 mg/kg/injection, schedule: Q04DX002 (ip), vehicle: saline 110 % of control | [12] 109 % of control | dose: 200.0 mg/kg/injection, schedule: Q04DX002 (ip), vehicle: saline 91 % of control
